The record followed here is patent US11591330B2, “HIF-2a small-molecule inhibitor and use thereof” (China Medical University, priority 2018, dated 2023).

One experiment addresses T1, HIF-2α (Homo sapiens, UniProt Q99814).
T1 construct: endogenous in cells; host or cells: MCF-7 MS (mammosphere / stem cell-like cells induced from human breast cancer MCF-7)
The experiment is described as follows: Western blot analysis of HIF-2α expression in MCF-7 MS cells. The note with it: 48 h, FIG. 8. In kind it is cell-based. As to the method: (§1) The human breast cancer stem cell-like MCF7 MS cells were divided into control (Ctrl) group, PTX alone treatment group, ComA alone treatment group, and ComA combined with PTX treatment group, treated for 48 h, and then collected; the cells were washed twice with pre-cooled 1×PBS, and PBS was discarded; 100-200 μl RIPA cell lysis solution (RIPA cell lysis solution:Protease inhibitor cocktail=250:1) was added according to the amount of cells; the mixture was transferred to an EP tube for lysis on ice for 40-60 min, and centrifuged at 4° C. at 12000 rpm/min for 15 minutes; and the supernatant was taken and stored at −80° C. for later use.
(§2) Protein standard curve was prepared (in a 96-well plate), with the configuration system and absorbance shown in the table below, wherein the protein solution was placed at 37° C. and shaken for 30 min, the OD value was measured at 570 nm wavelength, and the protein standard curve was drawn: the abscissa being the standard protein content, and the ordinate being the absorbance value (OD value) under the 570 nm wavelength, thereby drawing a standard curve.
(§3) The samples were treated with 6× protein loading buffer. According to the quantified protein concentration, 30 μl:50 μg protein sample per well was loaded, the well was filled with PBS up to 30 μl when the sample was insufficient, and the samples were denatured in a metal bath at 100° C. for 10 min. […]
For orientation: Immunoblotting shows a protein as a band on a membrane.

The subject of experiment [1] is human ovarian cancer OVCAR-3 cells. The experiment can be described thus: MTT/CCK8 cell proliferation analysis. It is filed as cell-based. The note with it: MTT/cck8, FIG. 5. As to the method: (§4) MCF-7 and OVCAR-3 cells were taken out from liquid nitrogen, thawed in a water bath at 37° C., and centrifuged at 1000 rpm for 5 min, the supernatant was removed, 1 ml of DMEM medium with 10% fetal bovine serum was added to MCF-7 cells, the cell suspension was transferred into a 25 cm2 cells culture flask, and a medium with 10% fetal bovine serum was added for culture.
(§5) Well-growing human breast cancer MCF-7 cells, human breast cancer stem cell-like cell MCF-7 MS cells, human ovarian cancer OVCAR-3 cells, human ovarian cancer stem cell-like cell OVCAR-3 cells were taken, digested, resuspended, and inoculated in a 96-well plate with the number of cells per well being 5×10^3; after 24 hours of culture, different concentrations of ComA, ComA combined with PTX, or ComA combined with DDP were administrated for treating the cells for 48 hours, with 3 replicate wells for each concentration; 5 mg/ml of MTT/cck8 was added for treatment for 2 h, followed by shaking for 10 min in a shaker; the absorbance at 570 nm (for measuring MTT)/450 nm (for measuring CCK8) was measured with a microplate reader, the inhibition rate was calculated according to the formula: inhibition rate %=[1−(dosing well-zero adjustment well)/(control well-zero adjustment well)]*100%; IC50 was calculated with SPSS16.0 software, and the experiment was repeated three times.

Experiment [2] deals with human breast cancer MCF-7 cells. The experiment can be described thus: MTT/CCK8 cell proliferation analysis. In kind it is cell-based. As to the method: as §4, §5
The subject of experiment [3] is human ovarian cancer stem cell-like OVCAR-3 MS cells. The experiment is described as follows: MTT/CCK8 cell proliferation analysis. In kind it is cell-based. As to the method: (§6) When MCF-7 or OVCAR-3 cells grew to 70%-80%, the medium was discarded, PBS was added for washing 3 times, and trypsin was added for digestion for 1 min; the DMEM medium containing 10% fetal calf serum was added to stop the digestion, centrifuged at 1000 rpm for 5 min, the supernatant was discarded, PBS was added to resuspend cells, centrifuged at 1000 rpm for 5 min, the supernatant was discarded, 2 ml DMEM-F12 conditioned medium was added to resuspend cells, and the cells were cultured in suspension at 37° C., 5% CO2 in a constant-humidity environment.
as §5

Experiment [4] relates to human breast cancer stem cell-like MCF-7 MS cells. The experiment is described as follows: MTT/CCK8 cell proliferation analysis. It is filed as cell-based. As to the method:
as §6, §5

A further experiment relates to HIF-1α. The experiment can be described thus: Western blot analysis of HIF-1α expression in MCF-7 MS cells. It is filed as cell-based, human. The following applies: 48 h, FIG. 8. As to the method: as §1, §2, §3

T1 sequence (Q99814 whole entry): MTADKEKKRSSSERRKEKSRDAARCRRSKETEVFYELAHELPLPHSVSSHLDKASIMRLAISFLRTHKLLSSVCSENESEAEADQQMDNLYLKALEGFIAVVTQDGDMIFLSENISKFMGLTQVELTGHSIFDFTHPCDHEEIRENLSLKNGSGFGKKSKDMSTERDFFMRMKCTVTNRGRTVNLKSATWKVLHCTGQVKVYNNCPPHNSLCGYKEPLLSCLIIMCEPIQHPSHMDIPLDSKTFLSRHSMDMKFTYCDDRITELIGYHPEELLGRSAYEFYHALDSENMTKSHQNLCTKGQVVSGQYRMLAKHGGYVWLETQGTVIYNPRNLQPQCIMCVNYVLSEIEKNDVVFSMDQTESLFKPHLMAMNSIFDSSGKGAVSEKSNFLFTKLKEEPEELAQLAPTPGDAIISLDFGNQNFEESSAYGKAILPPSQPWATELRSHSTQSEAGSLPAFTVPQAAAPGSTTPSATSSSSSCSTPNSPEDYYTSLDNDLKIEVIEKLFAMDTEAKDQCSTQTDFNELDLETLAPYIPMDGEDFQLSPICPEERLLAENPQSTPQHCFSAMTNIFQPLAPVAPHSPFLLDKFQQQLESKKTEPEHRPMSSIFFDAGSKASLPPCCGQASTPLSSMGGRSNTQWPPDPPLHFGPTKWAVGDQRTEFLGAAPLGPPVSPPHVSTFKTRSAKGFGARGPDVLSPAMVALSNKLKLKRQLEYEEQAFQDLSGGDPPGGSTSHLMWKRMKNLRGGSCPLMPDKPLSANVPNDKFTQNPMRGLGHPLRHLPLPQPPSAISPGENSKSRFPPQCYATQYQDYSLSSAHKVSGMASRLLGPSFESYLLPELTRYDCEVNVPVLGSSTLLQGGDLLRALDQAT

In the case of `Cc1ccn2c(=O)cc(CN(Cc3ccccc3)Cc3ccco3)nc2c1` [ComA], the “expression of HIF-2α” value on HIF-2α (ComA alone) and at HIF-2α (ComA combined with PTX) was “obviously inhibited the expression of HIF-2α” throughout. The “inhibitory activity on proliferation” value in experiment [1] is “obvious inhibitory activity”; in experiment [2] (MCF-7 cells, MTT/cck8, FIG. 4), “obvious inhibitory activity”; in experiment [3] (MTT/cck8, FIG. 5) it was “obvious inhibitory activity”; in experiment [4] (MTT/cck8, FIG. 4) it was “obvious inhibitory activity”. For the same compound, in experiment [2] (stated for tumor cells and tumor stem cells together), the “time dependence of anti-tumor cell and anti-tumor stem cell activity” value is “obviously time-dependent”. Also, the “enhancement of the inhibitory effect of cisplatin (DDP)” value in experiment [3] (ComA combined with DDP, 48 hours, FIG. 7) is reported as “can enhance the inhibitory effect”. The “enhancement of the inhibitory effect of paclitaxel (PTX)” value in experiment [4] (ComA combined with PTX, 48 hours, FIG. 6) is on record as “can enhance the inhibitory effect”. Also, in the experiment on HIF-1α, the “expression of HIF-1α” value is reported as “no obvious inhibitory effect”.
